From the NIST ThermoML archive (doi:10.1021/acs.jced.6b00657)

Experiment: xn = mol fraction of the nth substance listed
Conditions: Liquid, absorption in thin film, x2 = 0

CCn1cc[n+](C)c1.N#C[C-](C#N)C#N [1-ethyl-3-methyl-1H-imidazolium tricyanomethanide] + O=C=O
Conditions	binary diffusion coefficient [m2/s]
298.15 K, 96 kPa	3.3e-10
298.15 K, 194 kPa	2.4e-10
298.15 K, 294 kPa	2.7e-10
298.15 K, 393 kPa	2.6e-10
298.15 K, 493 kPa	2.8e-10
298.15 K, 793 kPa	3.6e-10
298.15 K, 893 kPa	3.2e-10
298.15 K, 993 kPa	3.2e-10
298.15 K, 1293 kPa	3.9e-10
298.15 K, 1393 kPa	3.8e-10
298.15 K, 1493 kPa	4.1e-10
298.15 K, 1793 kPa	4.4e-10
298.15 K, 1893 kPa	4.1e-10
298.15 K, 1992 kPa	4.2e-10
308.15 K, 194 kPa	2.9e-10
308.15 K, 293 kPa	3e-10
308.15 K, 393 kPa	3e-10
308.15 K, 493 kPa	3e-10
308.15 K, 593 kPa	3.1e-10
308.15 K, 693 kPa	3.3e-10
308.15 K, 792 kPa	3.8e-10
308.15 K, 893 kPa	3.6e-10
308.15 K, 993 kPa	3.5e-10
308.15 K, 1093 kPa	3.6e-10
308.15 K, 1192 kPa	4.1e-10
308.15 K, 1293 kPa	3.7e-10
308.15 K, 1393 kPa	3.9e-10
308.15 K, 1493 kPa	4.1e-10
308.15 K, 1593 kPa	3.9e-10
308.15 K, 1693 kPa	4.1e-10
308.15 K, 1792 kPa	4.2e-10
308.15 K, 1893 kPa	4.5e-10
308.15 K, 1993 kPa	4.1e-10
323.15 K, 194 kPa	4.4e-10
323.15 K, 294 kPa	4.8e-10
323.15 K, 394 kPa	4.4e-10
323.15 K, 494 kPa	3.9e-10
323.15 K, 593 kPa	4.1e-10
323.15 K, 692 kPa	4.1e-10
323.15 K, 793 kPa	4.4e-10
323.15 K, 892 kPa	5e-10
323.15 K, 993 kPa	4.4e-10
323.15 K, 1093 kPa	4.2e-10
323.15 K, 1193 kPa	5.3e-10
323.15 K, 1392 kPa	4.6e-10
323.15 K, 1492 kPa	4.2e-10
323.15 K, 1593 kPa	4.2e-10
323.15 K, 1693 kPa	4.2e-10
323.15 K, 1793 kPa	5.9e-10
323.15 K, 1993 kPa	4.9e-10
338.25 K, 94 kPa	5.1e-10
338.25 K, 194 kPa	5e-10
338.25 K, 294 kPa	5.1e-10
338.25 K, 394 kPa	4.9e-10
338.25 K, 494 kPa	5.8e-10
338.25 K, 594 kPa	4.5e-10
338.25 K, 693 kPa	4.6e-10
338.25 K, 793 kPa	5.6e-10
338.25 K, 893 kPa	5.2e-10
338.25 K, 1093 kPa	5.1e-10
338.25 K, 1192 kPa	5.2e-10
338.25 K, 1393 kPa	5.8e-10
338.25 K, 1493 kPa	4.9e-10
338.25 K, 1592 kPa	5.1e-10
338.25 K, 1693 kPa	4.6e-10
338.25 K, 1792 kPa	5.2e-10
338.25 K, 1993 kPa	5.4e-10
353.25 K, 95 kPa	6.1e-10
353.25 K, 294 kPa	9e-10
353.25 K, 494 kPa	7.4e-10
353.25 K, 594 kPa	6.6e-10
353.25 K, 694 kPa	6.6e-10
353.25 K, 794 kPa	6.8e-10
353.25 K, 894 kPa	7.8e-10
353.25 K, 994 kPa	6.7e-10
353.25 K, 1093 kPa	6.8e-10
353.25 K, 1192 kPa	7e-10
353.25 K, 1593 kPa	7.5e-10
353.25 K, 1693 kPa	8.2e-10
353.25 K, 1893 kPa	7.4e-10
353.25 K, 1993 kPa	7.8e-10

CCCCCCCn1cc[n+](C)c1.N#C[C-](C#N)C#N [1-heptyl-3-methylimidazolium tricyanomethanide] + O=C=O
Conditions	binary diffusion coefficient [m2/s]
298.15 K, 93 kPa	2e-10
298.15 K, 193 kPa	1.6e-10
298.15 K, 293 kPa	1.7e-10
298.15 K, 393 kPa	1.9e-10
298.15 K, 492 kPa	2e-10
298.15 K, 692 kPa	2.3e-10
298.15 K, 792 kPa	2.4e-10
298.15 K, 893 kPa	2.5e-10
298.15 K, 993 kPa	2.7e-10
298.15 K, 1193 kPa	3.1e-10
298.15 K, 1293 kPa	2.9e-10
298.15 K, 1392 kPa	2.9e-10
298.15 K, 1493 kPa	3.1e-10
298.15 K, 1693 kPa	2.8e-10
298.15 K, 1792 kPa	3.1e-10
298.15 K, 1893 kPa	3.6e-10
298.15 K, 1993 kPa	3.5e-10
308.15 K, 94 kPa	2.6e-10
308.15 K, 194 kPa	2.3e-10
308.15 K, 294 kPa	2.4e-10
308.15 K, 394 kPa	2.8e-10
308.15 K, 493 kPa	2.8e-10
308.15 K, 593 kPa	2.9e-10
308.15 K, 693 kPa	2.7e-10
308.15 K, 993 kPa	3e-10
308.15 K, 1093 kPa	3.2e-10
308.15 K, 1192 kPa	3.4e-10
308.15 K, 1293 kPa	3.3e-10
308.15 K, 1392 kPa	3.5e-10
308.15 K, 1493 kPa	3.6e-10
308.15 K, 1893 kPa	3.9e-10
308.15 K, 1993 kPa	4.2e-10
323.15 K, 95 kPa	3.2e-10
323.15 K, 195 kPa	4e-10
323.15 K, 294 kPa	3.8e-10
323.15 K, 394 kPa	3.5e-10
323.15 K, 494 kPa	3.8e-10
323.15 K, 594 kPa	3.9e-10
323.15 K, 692 kPa	3.2e-10
323.15 K, 793 kPa	4e-10
323.15 K, 893 kPa	3.5e-10
323.15 K, 993 kPa	4.4e-10
323.15 K, 1093 kPa	4.2e-10
323.15 K, 1192 kPa	4.4e-10
323.15 K, 1293 kPa	3.2e-10
338.25 K, 95 kPa	4.5e-10
338.25 K, 196 kPa	4.4e-10
338.25 K, 295 kPa	4.3e-10
338.25 K, 394 kPa	5.3e-10
338.25 K, 493 kPa	4.7e-10
338.25 K, 594 kPa	5.2e-10
338.25 K, 793 kPa	6.1e-10
338.25 K, 993 kPa	5.8e-10
338.25 K, 1093 kPa	5.6e-10
338.25 K, 1292 kPa	6.5e-10
338.25 K, 1392 kPa	5.6e-10
338.25 K, 1793 kPa	5.8e-10
338.25 K, 1893 kPa	5.6e-10
338.25 K, 1993 kPa	6.5e-10
353.25 K, 494 kPa	6.4e-10
353.25 K, 594 kPa	6.5e-10
353.25 K, 693 kPa	5.4e-10
353.25 K, 793 kPa	6e-10
353.25 K, 894 kPa	6.6e-10
353.25 K, 994 kPa	7.5e-10
353.25 K, 1094 kPa	5.7e-10
353.25 K, 1193 kPa	7.1e-10
